The target of assay [1] is SOS1 catalytic domain (residues 564-1049) (Homo sapiens (Human), UniProt Q07889). Briefly: Potency assay: binding affinity to SOS1 by Surface Plasmon Resonance (SPR). Particulars: avi-tagged SOS1 catalytic domain immobilized on sensor chip; 1:1 equilibrium binding fit.
In assay [2] the test system is cellular pERK in PC-9 cells (EGFR Ex19Del). The experiment in a line: Potency assay: pERK (AlphaLISA SureFire Ultra p-ERK1/2) in PC-9 cells. The format is cell-based. To be noted: Homo sapiens, PC-9, 1 h, PC-9 cells (EGFR Ex19Del), 1 hour incubation, AlphaLISA SureFire Ultra p-ERK1/2; read-out: SOS1 pERK IC50.
In assay [3] the target is SOS1 nucleotide exchange of wild-type KRAS (Homo sapiens (Human), UniProt Q07889). The experiment in a line: Mode of action assay: inhibition of SOS1 nucleotide exchange activity (TR-FRET). Format: biochemical. Particulars: SOS1 catalytic domain (564-1049), avi-tagged KRAS (1-169), EDA-GTP-DY-647P1; three replicates.
Chain of SOS1 nucleotide exchange of wild-type KRAS (Q07889 564-1049): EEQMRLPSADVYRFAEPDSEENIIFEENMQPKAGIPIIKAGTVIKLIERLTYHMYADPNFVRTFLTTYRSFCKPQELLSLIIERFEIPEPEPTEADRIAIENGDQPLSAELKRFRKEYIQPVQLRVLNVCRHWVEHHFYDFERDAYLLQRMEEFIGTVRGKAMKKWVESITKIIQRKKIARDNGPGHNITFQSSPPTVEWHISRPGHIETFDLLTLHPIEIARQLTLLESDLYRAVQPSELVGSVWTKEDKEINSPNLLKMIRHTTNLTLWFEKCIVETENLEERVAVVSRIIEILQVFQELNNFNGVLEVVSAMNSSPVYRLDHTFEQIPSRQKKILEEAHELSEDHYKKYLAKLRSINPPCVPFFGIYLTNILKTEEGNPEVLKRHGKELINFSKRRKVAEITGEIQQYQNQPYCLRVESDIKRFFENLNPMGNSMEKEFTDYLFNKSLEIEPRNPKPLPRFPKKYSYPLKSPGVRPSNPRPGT

SMILES strings stand for the structures.

In US11168102B1, “Bicyclic heteroaryl compounds and uses thereof” (Revolution Medicines, Inc., priority 2019, dated 2021) one finds Kd and IC50 data, which are given here for 31 compounds.

Chain of SOS1 catalytic domain (residues 564-1049) (Q07889 564-1049): as above

In assay [1], `C[C@@H](Nc1ncnc2c1cc(C1(O)CCC3(CC1)CS(=O)(=O)C3)c(=O)n2C)c1cccc(C(F)F)c1F` [Example 28-6] registered a Kd of 21 nM. Further, the IC50 in assay [2] was 123 nM; in assay [3] it was 14 nM.
In assay [1], `C[C@@H]1COC[C@H](C)N1C(=O)c1cc2c(N[C@H](C)c3cccc(C(F)F)c3F)ncnc2n(C)c1=O` [Example 26-25] yielded a dissociation constant (Kd) of 350 nM. The half-maximal inhibitory concentration (IC50) is 605 nM in assay [2] and 106 nM in assay [3].
As to `Cc1nc(N[C@H](C)c2cccc(C(F)F)c2F)c2cc(C3=CCN(C4COC4)CC3)c(=O)n(C)c2n1` [Example 1-26], the affinity in assay [1], expressed as Kd, was 61 nM. The figures for the IC50 in assay [2] and in assay [3] were 260 nM and 26.4 nM, respectively.
In assay [1], `Cc1nc(N[C@H](C)c2cccc(C(F)F)c2F)c2cc(C3=CCS(=N)(=O)CC3)c(=O)n(C)c2n1` (stereo partly drawn) [Example 23-1] had a Kd of 86.2 nM. In addition, the 50% inhibitory concentration (IC50) in assay [2] turned out to be 76 nM; in assay [3], 78.3 nM.
`CC(=O)N1CCC(F)(c2cc3c(N[C@H](C)c4cccc(C(F)F)c4F)ncnc3n(C)c2=O)CC1` [Example 29-5] returned a dissociation constant Kd in assay [1] of 37.4 nM. Also, the half-maximal inhibitory concentration (IC50) came out at 37.3 nM in assay [2] and 14.8 nM in assay [3].
For the compound `C[C@@H](Nc1ncnc2c1cc(C(=O)N1CCN(C3COC3)CC1)c(=O)n2C)c1cccc(C(F)F)c1F` [Example 26-43], the Kd in assay [1] was determined as 53.6 nM. In addition, the IC50 was determined as 181 nM in assay [2] and 37 nM in assay [3].
In the case of `CC(=O)N1CC=C(c2cc3c(N[C@H](C)c4cccc(C(F)F)c4Cl)ncnc3n(C)c2=O)CC1` [Example 1-23], binding in assay [1] was characterised by a dissociation constant (Kd) of 122 nM. The figures for the IC50 in assay [2] and in assay [3] were 70.2 nM and 94 nM, respectively.
As for `CC(=O)N1CC=C(c2cc3c(N[C@H](C)c4cccc(C(C)(F)F)c4)ncnc3n(C)c2=O)CC1` [Example 1-12], in assay [1], the Kd was determined as 36.8 nM. Also, the values for the IC50 in assay [2] and in assay [3] were 125 nM and 34 nM, respectively.
In assay [1], `Cc1nc(N[C@H](C)c2cccc(C(F)F)c2F)c2cc(-c3cccn(CCO)c3=O)c(=O)n(C)c2n1` [Example 21-12] showed a Kd of 216 nM. For the same compound, the 50% inhibitory concentration (IC50) in assay [2] was 588 nM; in assay [3] it was 123 nM.
In turn, `C[C@@H](Nc1ncnc2c1cc(C(=O)N1CCn3cncc3C1)c(=O)n2C)c1cccc(C(F)F)c1F` [Example 26-30] returned a dissociation constant Kd in assay [1] of 260 nM. Also, the IC50 in assay [2] worked out at 656 nM; in assay [3], 86.1 nM.
`C[C@@H](Nc1ncnc2c1cc(C(=O)N1CC(C)(O)C1)c(=O)n2C)c1cccc(C(F)F)c1F` [Example 26-3]: binding in assay [1] was characterised by a dissociation constant (Kd) of 404 nM. Also, the IC50 was found to be 659 nM in assay [2] and 407 nM in assay [3].
`Cc1nc(N[C@H](C)c2cccc(C(F)F)c2F)c2cc(C3CCOC3)c(=O)n(C)c2n1` (stereo partly drawn) [Example 1-29] showed a Kd in assay [1] of 157 nM. For the same compound, the half-inhibitory concentration (IC50) in assay [2] amounted to 309 nM; in assay [3] it was 129 nM.
The compound `Cc1nc(N[C@H](C)c2cccc(C(F)F)c2F)c2cc(C3(F)CCN(C)CC3)c(=O)n(C)c2n1` [Example 29-4] came in with a dissociation constant Kd in assay [1] of 52.2 nM. The IC50 in assay [2] is 144 nM; in assay [3], 15.9 nM.
In the same order, the values of `CC(=O)N1CC=C(c2cc3c(N[C@H](C)c4cccc(C(F)(F)F)c4C)ncnc3n(C)c2=O)CC1` [Example 1-19] are 144 nM, 91 nM and 44.3 nM.
For `C[C@@H](Nc1ncnc2c1cc(C(=O)N1CCc3ncccc31)c(=O)n2C)c1cccc(C(F)F)c1F` [Example 26-26], in that order: 269 nM, 228 nM and 72.2 nM.
In turn, `C[C@@H](Nc1ncnc2c1cc(C(=O)N1CC(F)C1)c(=O)n2C)c1cccc(C(F)F)c1F` [Example 26-1] showed a Kd in assay [1] of 285 nM. Moreover, the IC50 stood at 994 nM in assay [2] and 162 nM in assay [3].
In assay [1], `Cc1nc(N[C@H](C)c2cccc(C(F)F)c2F)c2cc(N3CCNCC3=O)c(=O)n(C)c2n1` [Example 2-4] gave an equilibrium dissociation constant (Kd) of 153 nM. The IC50 in assay [2] was 906 nM; in assay [3], 89.2 nM.
For `Cc1nc(N[C@H](C)c2cccc(C(F)F)c2F)c2cc(-c3cccnc3OCCO)c(=O)n(C)c2n1` [Example 21-11], in that order: 234 nM, 452 nM and 173 nM.
In turn, `C[C@@H](Nc1ncnc2c1cc(C(=O)N1CCc3ccncc31)c(=O)n2C)c1cccc(C(F)F)c1F` [Example 26-29] displayed a Kd in assay [1] of 136 nM. Further, the IC50 in assay [2] amounted to 1450 nM; in assay [3], 97.8 nM.
`C[C@@H](Nc1ncnc2c1cc(C(=O)N1CCCOCC1)c(=O)n2C)c1cccc(C(F)F)c1F` [Example 26-9]: the affinity in assay [1], expressed as Kd, was 178 nM. The IC50 stood at 479 nM in assay [2] and 122 nM in assay [3].
In assay [1], `Cc1nc(N[C@H](C)c2cccc(C(F)F)c2F)c2cc(N3CCN(C)CC3=O)c(=O)n(C)c2n1` [Example 2-5] showed a dissociation constant Kd of 97 nM. In addition, the results for the half-inhibitory concentration (IC50) in assay [2] and in assay [3] were 824 nM and 112 nM, respectively.
For `Cc1nc(N[C@H](C)c2cccc(C(F)F)c2F)c2cc(C3=CCNCC3)c(=O)n(C)c2n1` [Example 1-9], in that order: 74 nM, 666 nM and 48.9 nM.
Compound `C[C@@H](Nc1ncnc2c1cc(C1=CCS(=O)(=O)CC1)c(=O)n2C)c1cccc(C(F)F)c1F` [Example 1-17] yielded a Kd in assay [1] of 21.3 nM. The IC50 was determined as 50.7 nM in assay [2] and 13 nM in assay [3].
Turning to `C[C@@H](Nc1ncnc2c1cc(C1=CCOCC1)c(=O)n2C)c1cccc(C(F)F)c1F` [Example 1-5], the Kd in assay [1] was determined as 16.3 nM. For the same compound, the 50% inhibitory concentration (IC50) in assay [2] came out at 222 nM; in assay [3], 32 nM.
Turning to `CC(=O)N1CCC=C(c2cc3c(N[C@H](C)c4cccc(C(F)F)c4F)ncnc3n(C)c2=O)C1` [Example 1-14], the Kd in assay [1] was 19 nM. The IC50 amounted to 218 nM in assay [2] and 53 nM in assay [3].
For the compound `C[C@@H](Nc1ncnc2c1cc(C1=CCNCC1)c(=O)n2C)c1cccc(C(F)(F)F)c1` [Example 1-2], the affinity in assay [1], expressed as Kd, was 13.4 nM. The IC50 in assay [2] is 114 nM; in assay [3], 23.8 nM.
Consider `C[C@@H](Nc1ncnc2c1cc(C1CN(C)CCO1)c(=O)n2C)c1cccc(C(F)F)c1F` (stereo partly drawn) [Example 8-1], for which the Kd in assay [1] is 24.2 nM. Also, the half-inhibitory concentration (IC50) in assay [2] was found to be 68.4 nM; in assay [3], 24.6 nM.
For `CC(=O)N1CC=C(c2cc3c(N[C@H](C)c4cccc(C(F)F)c4C)ncnc3n(C)c2=O)CC1` [Example 1-11], in that order: 54.6 nM, 77 nM and 29.3 nM.
`C[C@@H]1CN(C(=O)c2cc3c(N[C@H](C)c4cccc(C(F)F)c4F)ncnc3n(C)c2=O)C[C@@H](C)O1` [Example 26-21] gave a Kd in assay [1] of 114 nM. Besides, the IC50 was 520 nM in assay [2] and 24.9 nM in assay [3].
In the same order, the values of `C[C@@H](Nc1ncnc2c1cc(C(=O)N(C)c1nccs1)c(=O)n2C)c1cccc(C(F)F)c1F` [Example 26-20] are 1460 nM, 1750 nM and 331 nM.
For the compound `C[C@@H](Nc1ncnc2c1cc(C1(O)CCS(=O)(=O)C1)c(=O)n2C)c1cccc(C(F)F)c1F` (stereo partly drawn) [Example 28-3], binding in assay [1] was characterised by a dissociation constant (Kd) of 128 nM. For the same compound, the figures for the IC50 in assay [2] and in assay [3] were 111 nM and 99.8 nM, respectively.
